Laboratory results taken from patent US20230145835A1, “Modulators of Alpha-4-beta-7 Integrin and MAdCAM” (48HD Biopharma Inc., priority 2021, published 2023).
Numbered stars: 1 amine (or outer) side, 2 acyl side, 3 side chain; on linkers, the order of the positions; unused ones are H or OH. Bridge positions count the residues as written; N and C are the ends. Square brackets hold non-standard residues; d marks the D form. Peptide text beside a SMILES is read from it. X12 = NC(=O)CC[C@@H](N[*:1])C(=O)C[C@@H](Cc1cnc[nH]1)C(=O)[*:2]; X13 = O=C(/C=N/OCCCCCCOC1=CC(C[*:3])=CC(C[*:2])C1)[*:1]; X3 = O=C(/C=N/OCCCCCCOc1cc(C[*:2])cc(C[*:3])c1)[*:1]; dMet(O) = CS(=O)CC[C@@H](N)C(=O)O; aIle = CC[C@@H](C)[C@H](N)C(=O)O; tBuAla = CC(C)(C)C[C@H](N)C(=O)O; Cba = N[C@@H](CC1CCC1)C(=O)O; Nle = CCCC[C@H](N)C(=O)O

Target: T1, rh-integrin α4β7/LPAM-1 (Homo sapiens, UniProt P13612+P26010)
T1 sequence (P13612 34-977 limits assumed): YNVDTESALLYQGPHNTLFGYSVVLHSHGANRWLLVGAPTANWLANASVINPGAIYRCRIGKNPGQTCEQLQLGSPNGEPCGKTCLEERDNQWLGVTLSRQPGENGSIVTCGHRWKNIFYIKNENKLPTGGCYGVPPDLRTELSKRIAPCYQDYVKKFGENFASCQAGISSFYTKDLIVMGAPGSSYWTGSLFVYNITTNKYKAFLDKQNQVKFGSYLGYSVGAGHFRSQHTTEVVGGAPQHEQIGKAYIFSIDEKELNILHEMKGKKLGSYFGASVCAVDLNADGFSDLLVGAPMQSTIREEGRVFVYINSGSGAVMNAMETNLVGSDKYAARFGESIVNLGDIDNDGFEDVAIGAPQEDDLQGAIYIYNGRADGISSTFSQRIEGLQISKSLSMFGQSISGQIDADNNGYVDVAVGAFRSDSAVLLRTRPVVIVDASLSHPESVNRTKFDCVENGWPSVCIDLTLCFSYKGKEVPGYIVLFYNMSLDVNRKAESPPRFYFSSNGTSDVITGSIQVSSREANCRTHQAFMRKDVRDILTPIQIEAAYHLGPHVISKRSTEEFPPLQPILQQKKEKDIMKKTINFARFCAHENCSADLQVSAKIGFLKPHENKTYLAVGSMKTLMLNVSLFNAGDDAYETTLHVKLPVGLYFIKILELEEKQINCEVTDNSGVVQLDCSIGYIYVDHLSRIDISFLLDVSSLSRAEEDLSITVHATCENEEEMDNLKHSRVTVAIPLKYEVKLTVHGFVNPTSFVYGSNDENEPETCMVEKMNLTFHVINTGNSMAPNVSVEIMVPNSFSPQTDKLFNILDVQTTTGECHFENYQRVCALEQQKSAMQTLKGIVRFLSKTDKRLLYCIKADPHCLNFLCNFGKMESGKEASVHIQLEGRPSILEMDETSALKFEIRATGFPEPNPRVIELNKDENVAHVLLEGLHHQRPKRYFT
T1 sequence (P26010 20-723 limits assumed): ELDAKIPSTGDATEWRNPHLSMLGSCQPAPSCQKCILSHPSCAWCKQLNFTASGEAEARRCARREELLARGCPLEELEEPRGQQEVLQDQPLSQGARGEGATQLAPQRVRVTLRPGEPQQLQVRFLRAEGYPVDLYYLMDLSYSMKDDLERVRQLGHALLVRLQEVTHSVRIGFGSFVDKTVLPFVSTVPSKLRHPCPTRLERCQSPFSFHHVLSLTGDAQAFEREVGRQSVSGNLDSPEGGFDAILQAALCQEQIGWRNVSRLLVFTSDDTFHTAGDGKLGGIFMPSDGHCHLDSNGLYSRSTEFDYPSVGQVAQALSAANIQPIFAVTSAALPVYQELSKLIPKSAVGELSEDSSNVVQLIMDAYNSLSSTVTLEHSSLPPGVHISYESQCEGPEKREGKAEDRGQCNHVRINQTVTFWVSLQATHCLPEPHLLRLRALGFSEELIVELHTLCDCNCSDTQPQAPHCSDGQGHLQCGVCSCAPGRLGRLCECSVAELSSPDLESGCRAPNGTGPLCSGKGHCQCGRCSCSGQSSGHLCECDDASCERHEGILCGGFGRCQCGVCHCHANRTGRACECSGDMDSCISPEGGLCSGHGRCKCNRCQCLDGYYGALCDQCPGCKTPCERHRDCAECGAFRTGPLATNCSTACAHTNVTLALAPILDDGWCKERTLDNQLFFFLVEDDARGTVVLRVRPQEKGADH
Assay: α4β7-MadCAM Competition ELISA (Example 4)
Type: binding
Conditions: Table 3 Representative compounds; inhibition of MAdCAM binding to coated α4β7; read-out: IC50
Protocol: After washing with wash buffer, 200 μL assay buffer was added to each well and incubated for one hour at 28° C. After another wash with wash buffer, 100 μL of a MAdCAM and peptide mixture in assay buffer was added to each well and incubated for one hour at 28° C., followed by washing with wash buffer.

Row | SMILES | IC50 [µM]
1 | CC(C)(C)C[C@@H]1NC(=O)[C@H](CC(=O)O)NC(=O)[C@H](CC2CCC2)NC(=O)[C@@H]2CCCN2C(=O)[C@@H]2CSCc3cc(cc(c3)OCCCCCCO/N=C/C(=O)N[C@@H](CCCNC(=N)N)C(=O)N2)CSC[C@@H](C(N)=O)NC(=O)[C@H](CCC(=O)O)NC(=O)[C@H](CCC(N)=O)NC(=O)[C@H](Cc2c[nH]c3ccccc23)NC1=O [compound 56, TSL6-SRCP{CbA}D {tBuAla}WQEC] (RCP[Cba]D[tBuAla]WQEC-NH2; linker N-2-10 via X3) | 3.89
2 | C[C@@H]1NC(=O)/C=N/OCCCCCCOC2=CC3=CC(CSC[C@H](NC1=O)C(=O)N[C@@H](C)C(=O)N[C@@H](Cc1c[nH]c4ccccc14)C(=O)N[C@@H](Cc1cnc[nH]1)C(=O)N[C@H](CCC(N)=O)C(=O)C[C@@H](Cc1cnc[nH]1)C(=O)N[C@@H](C)C(=O)N[C@H](C(N)=O)CSC3)C2 [compound 57, TSL6- SACAWHQHAC] (ACAWH[X12]AC-NH2; linker N-2-8 via X13) | 3.89
3 | CC(C)[C@@H]1NC(=O)[C@H](CC(=O)O)NC(=O)[C@H](CC(C)(C)C)NC(=O)[C@@H]2CCCN2C(=O)[C@@H]2CSCc3cc(cc(c3)OCCCCCCO/N=C/C(=O)N[C@@H](CCCNC(=N)N)C(=O)N2)CSC[C@@H](C(N)=O)NC(=O)[C@H](CCC(=O)O)NC(=O)CNC(=O)[C@H](Cc2c[nH]c3ccccc23)NC1=O [compound 58, TSL6- SRCP{tBuAla} DVWGEC] (RCP[tBuAla]DVWGEC-NH2; linker N-2-10 via X3) | 4.01
4 | CC(C)C[C@@H]1NC(=O)[C@H](C)NC(=O)[C@@H]2CSCc3cc(cc(c3)OCCCCCCO/N=C/C(=O)N[C@@H](CCCCN)C(=O)N2)CSC[C@@H](C(N)=O)NC(=O)[C@H](CO)NC(=O)[C@@H]2CCCN2C(=O)[C@H](C(C)C)NC(=O)[C@H](CC(=O)O)NC1=O [compound 59, TSL6- SKCALDVPSC] (KCALDVPSC-NH2; linker N-2-9 via X3) | 4.01
5 | C[C@@H](O)[C@@H]1NC(=O)[C@H](Cc2ccccc2)NC(=O)[C@H](CCCCN)NC(=O)[C@H](CC(=O)O)NC(=O)[C@H](Cc2cnc[nH]2)NC(=O)[C@@H]2CSCc3cc(cc(c3)OCCCCCCO/N=C/C(=O)N[C@@H](CO)C(=O)N2)CSC[C@@H](C(N)=O)NC(=O)[C@H](CCC(=O)O)NC1=O [compound 60, TSL6- SDCHDKFTEC] (SCHDKFTEC-NH2; linker N-2-9 via X3) | 5.43
6 | CSCC[C@@H]1NC(=O)[C@@H]2CCCN2C(=O)[C@@H]2CSCc3cc(cc(c3)OCCCCCCO/N=C/C(=O)N[C@@H](C)C(=O)N2)CSC[C@@H](C(N)=O)NC(=O)[C@H](CCC(=O)O)NC(=O)CNC(=O)[C@H](C)NC(=O)[C@H](C(C)C)NC(=O)[C@H](CC(=O)O)NC1=O [compound 61, TSL6- SACPMDVAGEC] (ACPMDVAGEC-NH2; linker N-2-10 via X3) | 5.98
7 | CSCC[C@@H]1NC(=O)[C@@H]2CCCN2C(=O)[C@@H]2CSCc3cc(cc(c3)OCCCCCCO/N=C/C(=O)N[C@@H](C)C(=O)N2)CSC[C@@H](C(N)=O)NC(=O)[C@H](CCC(=O)O)NC(=O)[C@H](CCC(N)=O)NC(=O)[C@H](Cc2c[nH]c3ccccc23)NC(=O)[C@H](C(C)C)NC(=O)[C@H](CC(=O)O)NC1=O [compound 62, TSL6- SDCHDPPKVC] (ACPMDVWQEC-NH2; linker N-2-10 via X3) | 6.42
8 | CC(C)C[C@@H]1NC(=O)/C=N/OCCCCCCOc2cc3cc(c2)CSC[C@H](NC1=O)C(=O)N[C@@H](Cc1ccc(O)cc1)C(=O)N[C@@H](CCC(=O)O)C(=O)N[C@@H](Cc1c[nH]c2ccccc12)C(=O)N[C@H](CCC(=O)O)C(=O)N[C@@H](Cc1cnc[nH]1)C(=O)N[C@@H](C)C(=O)N[C@H](C(N)=O)CSC3 [compound 63, TSL6- SLCYEWEHAC] (LCYEW[dE]HAC-NH2; linker N-2-9 via X3) | 7.95
9 | CSCC[C@@H]1NC(=O)[C@H](CO)NC(=O)[C@H](CC(=O)O)NC(=O)[C@@H]2CCCN2C(=O)[C@@H]2CSCc3cc(cc(c3)OCCCCCCO/N=C/C(=O)N[C@@H](CC(=O)O)C(=O)N2)CSC[C@@H](C(N)=O)NC(=O)[C@H](CO)NC(=O)[C@H](Cc2cnc[nH]2)NC(=O)[C@H](C)NC1=O [compound 65, TSL6- SDCPDSMAHSC] (DCPDSMAHSC-NH2; linker N-2-10 via X3) | 13.8
10 | CC[C@@H](C)[C@@H]1NC(=O)/C=N/OCCCCCCOc2cc3cc(c2)CSC[C@H](NC1=O)C(=O)N[C@@H](CCCNC(=N)N)C(=O)N[C@@H]([C@@H](C)O)C(=O)N[C@@H](CC(=O)O)C(=O)N[C@@H](C(C)C)C(=O)N1CCC[C@H]1C(=O)N[C@@H]([C@@H](C)CC)C(=O)N[C@@H](CC(=O)O)C(=O)N[C@H](C(N)=O)CSC3 [compound 66, TSL6- SICRTDVPIDC] ([aIle]CRTDVPIDC-NH2; linker N-2-10 via X3) | 14.4
11 | C[C@@H]1NC(=O)[C@H](CC(=O)O)NC(=O)[C@@H](CC[S+](C)[O-])NC(=O)[C@@H]2CCCN2C(=O)[C@@H]2CSCc3cc(cc(c3)OCCCCCCO/N=C/C(=O)N[C@@H](CCC(N)=O)C(=O)N2)CSC[C@@H](C(N)=O)NC(=O)[C@H]([C@@H](C)O)NC(=O)[C@@H]2CCCN2C1=O (stereo partly drawn) [compound 67, TSL6-SQCP{Ox-Met}DAPTC] (QCP[dMet(O)]DAPTC-NH2; linker N-2-9 via X3) | 15.7
12 | CCCC[C@@H]1NC(=O)[C@H](CO)NC(=O)[C@H](CCCNC(=N)N)NC(=O)[C@@H]2CSCC(=O)N[C@@H](CCCNC(=N)N)C(=O)N[C@@H](CSSC[C@@H](C(=O)N[C@@H](Cc3c[nH]c4ccccc34)C(=O)N[C@@H](CCC(N)=O)C(N)=O)NC(=O)[C@H](CC(C)C)NC(=O)[C@@H](CC(=O)O)NC1=O)C(=O)N[C@@H](CO)C(=O)N[C@@H](CC(=O)O)C(=O)N[C@@H]([C@@H](C)O)C(=O)N[C@@H](CC(C)C)C(=O)N2 [compound 68] ({CH2CO}-RCSDTLCRS[Nle][dD]LCWQ-NH2; disulfide 2-13; thioether N-7) | 15.9
13 | CCCC[C@@H]1NC(=O)[C@H](CO)NC(=O)[C@@H]2CSSC[C@@H](C(=O)N[C@@H](Cc3c[nH]c4ccccc34)C(=O)N[C@@H](CCC(N)=O)C(N)=O)NC(=O)[C@H](C(C)C)NC(=O)[C@@H](CC(=O)O)NC(=O)[C@H](CC(C)C)NC(=O)[C@H](CO)NC(=O)[C@H](CCCNC(=N)N)NC(=O)[C@H](CSCC(=O)N[C@@H](CCCNC(=N)N)C(=O)N2)NC(=O)[C@H]([C@@H](C)CC)NC(=O)[C@H](CC(=O)O)NC1=O [compound 70, Disulfide- RCS{Nle}DICRS LDVCWQ] ({CH2CO}-RCS[Nle]DICRSL[dD]VCWQ-NH2; disulfide 2-13; thioether N-7) | 19.7
14 | C[C@@H](O)[C@@H]1NC(=O)[C@H](CC(=O)O)NC(=O)[C@@H]2CCCN2C(=O)[C@H](Cc2ccc(O)cc2)NC(=O)[C@@H]2CSCc3cc(cc(c3)OCCCCCCO/N=C/C(=O)N[C@@H](CCC(=O)O)C(=O)N2)CSC[C@@H](C(N)=O)NC(=O)[C@H](Cc2cnc[nH]2)NC(=O)[C@H](Cc2ccc(O)cc2)NC1=O [compound 71, TSL6- SECYPDTYHC] (ECYPDTYHC-NH2; linker N-2-9 via X3) | 20.2
15 | CC[C@H](C)[C@@H]1NC(=O)[C@H](Cc2ccc(O)cc2)NC(=O)[C@H](CC(C)C)NC(=O)[C@@H]2CCCN2C(=O)[C@@H]2CSCc3cc(cc(c3)OCCCCCCO/N=C/C(=O)N[C@@H](CCSC)C(=O)N2)CSC[C@@H](C(N)=O)NC(=O)[C@H](Cc2cnc[nH]2)NC(=O)[C@H](C(C)C)NC1=O [compound 72, TSL6- SMCPLYIVHC] (MCPLYIVHC-NH2; linker N-2-9 via X3) | 29.4
